According to the NIST ThermoML archive (doi:10.1016/j.jct.2018.11.014):
± gives the expanded uncertainty stated by the source.

Experiment: molar heat capacity at constant pressure
Conditions: 101.33 kPa, Crystal, Vacuum adiabatic calorimetry

O=C(CO)[C@@H](O)[C@@H](O)[C@H](O)CO [D-(-)-tagatose]
Conditions | molar heat capacity at constant pressure [J/K/mol]
10 K | 0.94 ± 0.02
14.02 K | 2.674 ± 0.035
14.41 K | 2.87 ± 0.037
14.81 K | 3.123 ± 0.04
15.25 K | 3.307 ± 0.042
15.73 K | 3.601 ± 0.045
16.23 K | 3.917 ± 0.048
16.72 K | 4.241 ± 0.051
17.21 K | 4.591 ± 0.055
17.74 K | 4.922 ± 0.059
18.26 K | 5.33 ± 0.063
18.79 K | 5.733 ± 0.067
19.32 K | 6.103 ± 0.07
19.88 K | 6.523 ± 0.075
20 K | 6.61 ± 0.08
20.46 K | 6.946 ± 0.079
21.02 K | 7.413 ± 0.084
21.59 K | 7.933 ± 0.089
22.17 K | 8.327 ± 0.093
22.74 K | 8.872 ± 0.098
23.29 K | 9.326 ± 0.1
23.86 K | 9.837 ± 0.11
24.43 K | 10.34 ± 0.11
24.96 K | 10.79 ± 0.12
25.5 K | 11.35 ± 0.12
26.05 K | 11.75 ± 0.13
26.63 K | 12.36 ± 0.13
27.21 K | 12.84 ± 0.14
27.8 K | 13.39 ± 0.14
28.43 K | 14.04 ± 0.15
29.08 K | 14.61 ± 0.15
29.7 K | 15.2 ± 0.16
30 K | 15.48 ± 0.16
30.32 K | 15.75 ± 0.17
30.93 K | 16.36 ± 0.17
31.54 K | 16.95 ± 0.18
32.18 K | 17.49 ± 0.18
32.85 K | 18.2 ± 0.19
33.51 K | 18.79 ± 0.2
34.17 K | 19.45 ± 0.2
34.85 K | 20.14 ± 0.21
35.56 K | 20.8 ± 0.22
36.25 K | 21.42 ± 0.22
36.92 K | 22.12 ± 0.23
37.6 K | 22.72 ± 0.24
38.32 K | 23.45 ± 0.24
39.06 K | 24.19 ± 0.25
39.8 K | 24.86 ± 0.26
40 K | 25.07 ± 0.26
40.56 K | 25.59 ± 0.27
41.34 K | 26.39 ± 0.27
42.12 K | 27.17 ± 0.28
42.9 K | 27.84 ± 0.29
43.73 K | 28.66 ± 0.29
44.59 K | 29.45 ± 0.3
45.47 K | 30.31 ± 0.31
46.33 K | 31.15 ± 0.32
47.17 K | 31.93 ± 0.33
48.01 K | 32.72 ± 0.34
48.86 K | 33.49 ± 0.34
49.73 K | 34.49 ± 0.35
50 K | 34.58 ± 0.35
50.59 K | 35.1 ± 0.36
51.44 K | 35.9 ± 0.37
52.28 K | 36.7 ± 0.38
53.12 K | 37.43 ± 0.38
53.94 K | 38.19 ± 0.39
54.73 K | 38.96 ± 0.4
55.51 K | 39.6 ± 0.41
56.29 K | 40.34 ± 0.41
57.09 K | 41.06 ± 0.42
57.89 K | 41.8 ± 0.43
58.7 K | 42.51 ± 0.43
59.51 K | 43.28 ± 0.44
60 K | 43.72 ± 0.45
60.35 K | 44.06 ± 0.45
61.19 K | 44.77 ± 0.46
62.02 K | 45.55 ± 0.47
62.84 K | 46.28 ± 0.47
63.66 K | 46.99 ± 0.48
64.47 K | 47.71 ± 0.49
65.28 K | 48.44 ± 0.49
66.09 K | 49.12 ± 0.5
66.9 K | 49.84 ± 0.51
67.72 K | 50.53 ± 0.52
68.52 K | 51.3 ± 0.52
69.3 K | 51.99 ± 0.53
70 K | 52.55 ± 0.54
70.08 K | 52.63 ± 0.54
70.85 K | 53.29 ± 0.54
71.66 K | 54 ± 0.55
72.51 K | 54.75 ± 0.56
73.34 K | 55.43 ± 0.56
74.17 K | 56.15 ± 0.57
74.99 K | 56.78 ± 0.58
75.84 K | 57.55 ± 0.59
76.73 K | 58.37 ± 0.59
77.61 K | 59.05 ± 0.6
78.48 K | 59.83 ± 0.61
79.34 K | 60.58 ± 0.62
80 K | 61.11 ± 0.62
80.24 K | 61.32 ± 0.62
81.18 K | 62.13 ± 0.63
82.13 K | 62.93 ± 0.64
83.07 K | 63.68 ± 0.65
84.01 K | 64.47 ± 0.66
85 K | 65.34 ± 0.67
86.03 K | 66.11 ± 0.67
87.06 K | 66.91 ± 0.68
88.1 K | 67.79 ± 0.69
89.12 K | 68.69 ± 0.7
90 K | 69.42 ± 0.72
90.18 K | 69.57 ± 0.72
91.27 K | 70.49 ± 0.73
92.35 K | 71.33 ± 0.74
93.42 K | 72.22 ± 0.75
94.47 K | 73.05 ± 0.76
95.56 K | 73.96 ± 0.77
96.68 K | 74.84 ± 0.77
97.79 K | 75.75 ± 0.78
98.88 K | 76.69 ± 0.79
99.96 K | 77.46 ± 0.8
100 K | 77.52 ± 0.8
101.1 K | 78.37 ± 0.81
102.28 K | 79.32 ± 0.82
103.46 K | 80.27 ± 0.83
104.64 K | 81.16 ± 0.84
105.83 K | 82.14 ± 0.84
107.05 K | 83.09 ± 0.85
108.3 K | 84.09 ± 0.86
109.54 K | 85.07 ± 0.87
110 K | 85.43 ± 0.88
110.79 K | 86.05 ± 0.88
112.05 K | 87.01 ± 0.89
113.37 K | 88.06 ± 0.9
114.74 K | 89.11 ± 0.91
116.09 K | 90.16 ± 0.93
117.44 K | 91.23 ± 0.94
118.77 K | 92.2 ± 0.94
120 K | 93.18 ± 0.95
120.13 K | 93.3 ± 0.96
121.52 K | 94.39 ± 0.97
122.9 K | 95.4 ± 0.98
124.27 K | 96.48 ± 0.99
125.63 K | 97.47 ± 1
127.06 K | 98.59 ± 1
128.55 K | 99.75 ± 1
130 K | 100.79 ± 1
130.03 K | 100.83 ± 1
131.5 K | 101.97 ± 1
132.96 K | 103.07 ± 1.1
134.45 K | 104.19 ± 1.1
135.97 K | 105.29 ± 1.1
137.47 K | 106.45 ± 1.1
138.97 K | 107.56 ± 1.1
140 K | 108.3 ± 1.1
140.45 K | 108.68 ± 1.1
141.96 K | 109.8 ± 1.1
143.5 K | 110.93 ± 1.1
145.03 K | 112.09 ± 1.1
146.55 K | 113.1 ± 1.1
148.1 K | 114.27 ± 1.2
149.72 K | 115.49 ± 1.2
150 K | 115.72 ± 1.2
151.43 K | 116.75 ± 1.2
153.17 K | 118.02 ± 1.2
154.9 K | 119.31 ± 1.2
156.62 K | 120.56 ± 1.2
158.37 K | 121.84 ± 1.2
160 K | 123.1 ± 1.2
160.14 K | 123.23 ± 1.2
161.94 K | 124.54 ± 1.3
163.76 K | 125.92 ± 1.3
165.57 K | 127.19 ± 1.3
167.41 K | 128.53 ± 1.3
169.28 K | 129.9 ± 1.3
170 K | 130.45 ± 1.3
171.14 K | 131.27 ± 1.3
172.99 K | 132.6 ± 1.4
174.82 K | 134.01 ± 1.4
176.68 K | 135.37 ± 1.4
178.57 K | 136.72 ± 1.4
180 K | 137.8 ± 1.4
180.49 K | 138.21 ± 1.4
182.43 K | 139.62 ± 1.4
184.37 K | 141.02 ± 1.4
186.33 K | 142.53 ± 1.4
188.32 K | 143.96 ± 1.5
190 K | 145.19 ± 1.5
190.29 K | 145.43 ± 1.5
192.26 K | 146.89 ± 1.5
194.22 K | 148.2 ± 1.5
196.2 K | 149.78 ± 1.5
198.21 K | 151.32 ± 1.5
200 K | 152.62 ± 1.6
200.21 K | 152.77 ± 1.6
202.19 K | 154.24 ± 1.6
204.24 K | 155.8 ± 1.6
206.37 K | 157.27 ± 1.6
208.53 K | 159.03 ± 1.6
210 K | 160.09 ± 1.6
210.68 K | 160.61 ± 1.6
212.82 K | 162.18 ± 1.6
214.94 K | 163.84 ± 1.7
217.1 K | 165.39 ± 1.7
219.28 K | 167.07 ± 1.7
220 K | 167.61 ± 1.7
221.45 K | 168.71 ± 1.7
223.6 K | 170.37 ± 1.7
225.82 K | 171.99 ± 1.7
228.13 K | 173.74 ± 1.8
230 K | 175.16 ± 1.8
230.48 K | 175.53 ± 1.8
232.81 K | 177.33 ± 1.8
235.13 K | 179.15 ± 1.8
237.48 K | 180.87 ± 1.8
239.92 K | 182.64 ± 1.9
240 K | 182.74 ± 1.9
242.39 K | 184.45 ± 1.9
244.84 K | 186.37 ± 1.9
247.28 K | 188.22 ± 1.9
249.7 K | 190.03 ± 1.9
250 K | 190.36 ± 1.9
252.15 K | 192.06 ± 1.9
254.63 K | 194.03 ± 2
257.1 K | 195.94 ± 2
259.55 K | 197.81 ± 2
260 K | 198.11 ± 2
261.98 K | 199.73 ± 2
264.45 K | 201.55 ± 2
266.94 K | 203.51 ± 2.1
269.42 K | 205.41 ± 2.1
270 K | 206.1 ± 2.1
271.88 K | 207.63 ± 2.1
274.33 K | 209.55 ± 2.1
276.81 K | 211.93 ± 2.1
279.31 K | 213.91 ± 2.2
280 K | 214.24 ± 2.2
281.79 K | 215.77 ± 2.2
284.26 K | 217.69 ± 2.2
286.73 K | 219.65 ± 2.2
289.21 K | 221.51 ± 2.2
290 K | 222.17 ± 2.2
291.73 K | 223.31 ± 2.2
294.22 K | 225.32 ± 2.3
296.71 K | 227.47 ± 2.3
298.15 K | 228.55 ± 2.3
299.18 K | 229.22 ± 2.3
300 K | 229.99 ± 2.3
301.76 K | 231.28 ± 2.3
304.46 K | 233.53 ± 2.4
307.14 K | 235.53 ± 2.4
309.81 K | 237.67 ± 2.4
310 K | 237.81 ± 2.4
312.46 K | 239.92 ± 2.4
315.14 K | 241.99 ± 2.4
317.84 K | 244.2 ± 2.5
320 K | 245.73 ± 2.5
320.53 K | 246.19 ± 2.5
323.2 K | 248.11 ± 2.5
325.86 K | 250.28 ± 2.5
328.54 K | 252.68 ± 2.5
330 K | 253.86 ± 2.6
331.25 K | 254.96 ± 2.6
